Data from patent US10975099B2, “Thiophene compounds for long-acting injectable compositions and related methods” (Alkermes Pharma Ireland Limited, priority 2018, dated 2021).
Several values for one entry are separate records, joined by “and”; a condition that tells them apart may be missing. Equal values may be shown once.

Assays:
[1] = Pharmacokinetic evaluation of the release of naltrexone from Compound 4 in rats following a single intramuscular injection; format: in vivo, Sprague-Dawley rats; conditions: for plasma concentrations of parent Compound 4 and the resultant intermediate, in words: over 84 days after single IM dose of Compound 4, limit of quantitation 0.5 ng/mL
Experimental: Five male Sprague-Dawley rats were allowed to acclimate to the test facility for at least 3 days prior to study start. For dose administration of Compound 4, the rats were lightly anesthetized with isofluorane, the hind leg shaved and dosed intramuscularly with the formulation using a 20 G needle. […] Serial whole blood samples were collected via sublingual route (˜150 μL) at 1, 7, and 24 hours post dose, and at 2, 4, 7, 10, 14, 21, 24, 28, 35, 42, 49, 56, 63, 70, 77, and 84 days post dose.
Blood samples were placed into K2EDTA blood collection tubes. After collection, blood samples were maintained chilled (on wet ice) and centrifuged (11,500 rpm for 2 minutes at 5 degrees C.) within 30 minutes to obtain plasma. Plasma was transferred into a single vial, 1.5 mL screw cap micro-centrifuge tube with inserts and stored at −80 degrees C. until analysis.
The formulation dosed was a crystalline suspension of Compound 4 (48.3 milligrams of Compound 4 dosed per animal), wherein the crystalline test article was characterized with a particle size distribution of Dv10=4.0 μm, Dv50=6.4 μm, and Dv90=9.6 μm (as measured via laser diffraction). The formulation was prepared the day before dosing. Details of the formulation dosed are described in Table D below.
Results of the above intramuscular rat study of Compound 4 are shown in Tables E and F. In particular, Table E reports the average blood plasma levels of naltrexone in rat (n=5) over 84 days following intramuscular administration.

[2] = Whole blood stability assay; format: in vitro ADME; conditions: pooled fresh human whole blood, 37 degrees C., prodrug 50 nM; read-out: t1/2 at 37 degrees C. in human whole blood
Experimental: Naltrexone prodrug stability was assessed using freshly collected whole blood (within 24-hr collection) from pooled human (n=3) donors. The incubation mixtures were prepared by spiking the prodrugs into pre-warmed (37 degrees C.) fresh whole blood to a final concentration of 50 nM. After gentle mixing, aliquots of incubation mixtures were immediately transferred into four different 96-deep well plates. One plate was used for each time point. The plates were incubated at 37 degrees C. at a shaking speed of 100 rpm. At time points 15, 30, 60 and 120 minutes, the reaction was quenched by addition of a mixture of water and acetonitrile containing the internal standard (naltrexone-D3). Time point 0 minutes was prepared separately by spiking the prodrugs into a quenched whole blood to obtain a final concentration of 50 nM. All samples were vortexed at a low speed for 15 min and centrifuged at 3900 rpm for 15 min. Supernatants were transferred into 96-well plates for LC-MS/MS analysis to monitor the depletion of the prodrugs and the formation of naltrexone.
The amount of remaining prodrug and released naltrexone for each sample was quantitated against the calibration curves prepared with the whole blood. The human whole blood was purchased from BioreclamationIVT (Westbury, N.Y., USA). Naltrexone-D3 was purchased from Cerilliant® (Round Rock, Tex., USA). […] Where multiple runs have been completed, average values are reported.

Compound: O=C(O)Cc1ccc(CC(=O)Oc2ccc3c4c2O[C@H]2C(=O)CC[C@@]5(O)[C@@H](C3)N(CC3CC3)CC[C@]425)s1 [Compound 4i, 2-(5-(2-(((4R,4aS,7aR,12bS)-3-(cyclopropylmethyl)-4a-hydroxy-7-oxo-2,3,4,4a,5,6,7,7a-octahydro-1H-4,12-methanobenzofuro[3,2-e]isoquinolin-9-yl)oxy)-2-oxoethyl)thiophen-2-yl)acetic acid]
- plasma concentrations of parent Compound 4 and the resultant intermediate, in words ([1]; rat): generally low to not measurable

Compound: O=C(Oc1ccc2c3c1O[C@H]1C(=O)CC[C@@]4(O)[C@@H](C2)N(CC2CC2)CC[C@]314)c1ccc(C(=O)Oc2ccc3c4c2O[C@H]2C(=O)CC[C@@]5(O)[C@@H](C3)N(CC3CC3)CC[C@]425)cc1 [Reference Compound A, NTX-3-terephthaloyl-NTX, reference compound]
- half-life at 50 nM [2]: 54.7 min

Compound: O=C(CCc1ccc(CCC(=O)Oc2ccc3c4c2O[C@H]2C(=O)CC[C@@]5(O)[C@@H](C3)N(CC3CC3)CC[C@]425)s1)Oc1ccc2c3c1O[C@H]1C(=O)CC[C@@]4(O)[C@@H](C2)N(CC2CC2)CC[C@]314 [Compound 1, bis((4R,4aS,7aR,12bS)-3-(cyclopropylmethyl)-4a-hydroxy-7-oxo-2,3,4,4a,5,6,7,7a-octahydro-1H-4,12-methanobenzofuro[3,2-e]isoquinolin-9-yl) 3,3′-(thiophene-2,5-diyl)dipropionate]
- half-life at 50 nM [2]: 7.2 min

Compound: O=C(Cc1cscc1CC(=O)Oc1ccc2c3c1O[C@H]1C(=O)CC[C@@]4(O)[C@@H](C2)N(CC2CC2)CC[C@]314)Oc1ccc2c3c1O[C@H]1C(=O)CC[C@@]4(O)[C@@H](C2)N(CC2CC2)CC[C@]314 [Compound 2, bis((4R,4aS,7aR,12bS)-3-(cyclopropylmethyl)-4a-hydroxy-7-oxo-2,3,4,4a,5,6,7,7a-octahydro-1H-4,12-methanobenzofuro[3,2-e]isoquinolin-9-yl) 2,2′-(thiophene-3,4-diyl)diacetate]
- half-life at 50 nM [2]: < 5 min

Compound: O=C(Cc1sc(CC(=O)Oc2ccc3c4c2O[C@H]2C(=O)CC[C@@]5(O)[C@@H](C3)N(CC3CC3)CC[C@]425)c2ccccc12)Oc1ccc2c3c1O[C@H]1C(=O)CC[C@@]4(O)[C@@H](C2)N(CC2CC2)CC[C@]314 [Compound 3, bis((4R,4aS,7aR,12bS)-3-(cyclopropylmethyl)-4a-hydroxy-7-oxo-2,3,4,4a,5,6,7,7a-octahydro-1H-4,12-methanobenzofuro[3,2-e]isoquinolin-9-yl) 2,2′-(benzo[c]thiophene-1,3-diyl)diacetate]
- half-life at 50 nM [2]: 41.2 min

Compound: O=C(Cc1ccc(CC(=O)Oc2ccc3c4c2O[C@H]2C(=O)CC[C@@]5(O)[C@@H](C3)N(CC3CC3)CC[C@]425)s1)Oc1ccc2c3c1O[C@H]1C(=O)CC[C@@]4(O)[C@@H](C2)N(CC2CC2)CC[C@]314 [Compound 4, bis((4R,4aS,7aR,12bS)-3-(cyclopropylmethyl)-4a-hydroxy-7-oxo-2,3,4,4a,5,6,7,7a-octahydro-1H-4,12-methanobenzofuro[3,2-e]isoquinolin-9-yl) 2,2′-(thiophene-2,5-diyl)diacetate]
- concentration at 1 day ([1]; male, Sprague-Dawley, rat, plasma, intramuscular, 48.3 mg per animal, rat plasma, individual animals Rat 1-5, day 1 after single IM dose of Compound 4, read-out: Compound 4 conc.): < 0.5 ng/mL
- concentration at 49 day ([1]; male, Sprague-Dawley, rat, plasma, intramuscular, 48.3 mg per animal, rat plasma, individual animals Rat 1-5, day 49 after single IM dose of Compound 4, read-out: Compound 4 conc.): < 0.5 ng/mL
- concentration at 56 day ([1]; male, Sprague-Dawley, rat, plasma, intramuscular, 48.3 mg per animal, rat plasma, individual animals Rat 1-5, day 56 after single IM dose of Compound 4, read-out: Compound 4 conc.): < 0.5 ng/mL
- concentration at 63 day ([1]; male, Sprague-Dawley, rat, plasma, intramuscular, 48.3 mg per animal, rat plasma, individual animals Rat 1-5, day 63 after single IM dose of Compound 4, read-out: Compound 4 conc.): < 0.5 ng/mL
- concentration at 70 day ([1]; male, Sprague-Dawley, rat, plasma, intramuscular, 48.3 mg per animal, rat plasma, individual animals Rat 1-5, day 70 after single IM dose of Compound 4, read-out: Compound 4 conc.): < 0.5 ng/mL
- concentration at 77 day ([1]; male, Sprague-Dawley, rat, plasma, intramuscular, 48.3 mg per animal, rat plasma, individual animals Rat 1-5, day 77 after single IM dose of Compound 4, read-out: Compound 4 conc.): < 0.5 ng/mL
- concentration at 84 day ([1]; male, Sprague-Dawley, rat, plasma, intramuscular, 48.3 mg per animal, rat plasma, individual animals Rat 1-5, day 84 after single IM dose of Compound 4, read-out: Compound 4 conc.): < 0.5 ng/mL
- concentration at 2 day ([1]; male, Sprague-Dawley, rat, plasma, intramuscular, 48.3 mg/animal, rat plasma, individual animals Rat 1-5, day 2 after single IM dose of Compound 4, read-out: Compound 4 conc.): < 0.5 ng/mL
- concentration at 4 day ([1]; male, Sprague-Dawley, rat, plasma, intramuscular, 48.3 mg/animal, rat plasma, individual animals Rat 1-5, day 4 after single IM dose of Compound 4, read-out: Compound 4 conc.): < 0.5 ng/mL
- concentration at 7 day ([1]; male, Sprague-Dawley, rat, plasma, intramuscular, 48.3 mg/animal, rat plasma, individual animals Rat 1-5, day 7 after single IM dose of Compound 4, read-out: Compound 4 conc.): < 0.5 ng/mL
- concentration at 10 day ([1]; male, Sprague-Dawley, rat, plasma, intramuscular, 48.3 mg/animal, rat plasma, individual animals Rat 1-5, day 10 after single IM dose of Compound 4, read-out: Compound 4 conc.): < 0.5 ng/mL
- concentration at 14 day ([1]; male, Sprague-Dawley, rat, plasma, intramuscular, 48.3 mg/animal, rat plasma, individual animals Rat 1-5, day 14 after single IM dose of Compound 4, read-out: Compound 4 conc.): < 0.5 ng/mL
- concentration at 21 day ([1]; male, Sprague-Dawley, rat, plasma, intramuscular, 48.3 mg/animal, rat plasma, individual animals Rat 1-5, day 21 after single IM dose of Compound 4, read-out: Compound 4 conc.): < 0.5 ng/mL
- concentration at 24 day ([1]; male, Sprague-Dawley, rat, plasma, intramuscular, 48.3 mg/animal, rat plasma, individual animals Rat 1-5, day 24 after single IM dose of Compound 4, read-out: Compound 4 conc.): < 0.5 ng/mL
- concentration at 28 day ([1]; male, Sprague-Dawley, rat, plasma, intramuscular, 48.3 mg/animal, rat plasma, individual animals Rat 1-5, day 28 after single IM dose of Compound 4, read-out: Compound 4 conc.): < 0.5 ng/mL
- concentration at 35 day ([1]; male, Sprague-Dawley, rat, plasma, intramuscular, 48.3 mg/animal, rat plasma, individual animals Rat 1-5, day 35 after single IM dose of Compound 4, read-out: Compound 4 conc.): < 0.5 ng/mL
- concentration at 42 day ([1]; male, Sprague-Dawley, rat, plasma, intramuscular, 48.3 mg/animal, rat plasma, individual animals Rat 1-5, day 42 after single IM dose of Compound 4, read-out: Compound 4 conc.): < 0.5 ng/mL
- Naltrexone conc. ([1]; rat plasma, average, day 84 after single IM dose of Compound 4 crystalline suspension (48.3 mg/animal)): BLQ* (BLQ (Below Limit of Quantitation) means <0.5 ng/mL)
- Compound 4 conc. ([1]; rat plasma, individual animals Rat 1-5, day 0.04 (1 hr) after single IM dose of Compound 4): <0.5 ng/mL (4×) and 2.11 ng/mL
- Compound 4 conc. ([1]; rat plasma, individual animals Rat 1-5, day 0.3 (7 hr) after single IM dose of Compound 4): 1.22 ng/mL and <0.5 ng/mL (3×) and 1.05 ng/mL
- Compound 4 conc. ([1]; rat plasma, individual animals Rat 1-5, day 1 after single IM dose of Compound 4): <0.5 ng/mL (3×) and 0.501 ng/mL
- Compound 4 conc. ([1]; rat plasma, individual animals Rat 1-5, day 2 after single IM dose of Compound 4): <0.5 ng/mL
- Compound 4 conc. ([1]; rat plasma, individual animals Rat 1-5, day 4 after single IM dose of Compound 4): <0.5 ng/mL
- Compound 4 conc. ([1]; rat plasma, individual animals Rat 1-5, day 7 after single IM dose of Compound 4): <0.5 ng/mL
- Compound 4 conc. ([1]; rat plasma, individual animals Rat 1-5, day 10 after single IM dose of Compound 4): <0.5 ng/mL
- Compound 4 conc. ([1]; rat plasma, individual animals Rat 1-5, day 14 after single IM dose of Compound 4): <0.5 ng/mL
- Compound 4 conc. ([1]; rat plasma, individual animals Rat 1-5, day 21 after single IM dose of Compound 4): <0.5 ng/mL
- Compound 4 conc. ([1]; rat plasma, individual animals Rat 1-5, day 24 after single IM dose of Compound 4): <0.5 ng/mL
- Compound 4 conc. ([1]; rat plasma, individual animals Rat 1-5, day 28 after single IM dose of Compound 4): <0.5 ng/mL
- Compound 4 conc. ([1]; rat plasma, individual animals Rat 1-5, day 35 after single IM dose of Compound 4): <0.5 ng/mL
- Compound 4 conc. ([1]; rat plasma, individual animals Rat 1-5, day 42 after single IM dose of Compound 4): <0.5 ng/mL
- Compound 4 conc. ([1]; rat plasma, individual animals Rat 1-5, day 49 after single IM dose of Compound 4): <0.5 ng/mL
- Compound 4 conc. ([1]; rat plasma, individual animals Rat 1-5, day 56 after single IM dose of Compound 4): <0.5 ng/mL
- Compound 4 conc. ([1]; rat plasma, individual animals Rat 1-5, day 63 after single IM dose of Compound 4): <0.5 ng/mL
- Compound 4 conc. ([1]; rat plasma, individual animals Rat 1-5, day 70 after single IM dose of Compound 4): <0.5 ng/mL
- Compound 4 conc. ([1]; rat plasma, individual animals Rat 1-5, day 77 after single IM dose of Compound 4): <0.5 ng/mL
- Compound 4 conc. ([1]; rat plasma, individual animals Rat 1-5, day 84 after single IM dose of Compound 4): <0.5 ng/mL
- plasma concentrations of parent Compound 4 and the resultant intermediate, in words ([1]; rat): generally low to not measurable
- half-life at 50 nM [2]: 4.19 min
